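1) Cells in 96-well plates. 2) Compound, 48 h, 5 concentrations. 3) Linear interpolation between surrounding doses. 4) Unreached endpoint = highest concentration. GI50: concentration for 50% inhibition of growth.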 Calls of active or inactive are those of the source. No stated cut-off is given here; in the data, active = GI50 up to about 1.1 µM and inactive = higher.
Columns and labels:
Assay in all cases: inhibition of tumour cell growth, NCI panel, 48 h
[1] = system: RXF 393
[2] = system: IGROV-1
[3] = system: NCI-H522
[4] = system: BT-549
[5] = system: SF-539
[6] = system: T47D
[7] = system: Hs-578T
[8] = system: K562
[9] = system: PC-3
[10] = system: TK-10
[11] = system: DU-145
[12] = system: MDA-MB-231
[13] = system: NCI/ADR-RES
[14] = system: SF-268
[15] = system: NCI-H23
[16] = system: KM12
[17] = system: OVCAR-4
[18] = system: MDA-MB-435
[19] = system: CAKI-1

| Compound | GI50 [1] | GI50 [2] | GI50 [3] | GI50 [4] | GI50 [5] | GI50 [6] | GI50 [7] | GI50 [8] | GI50 [9] | GI50 [10] | GI50 [11] | GI50 [12] | GI50 [13] | GI50 [14] | GI50 [15] | GI50 [16] | GI50 [17] | GI50 [18] | GI50 [19] |
| --- | --- | --- | --- | --- | --- | --- | --- | --- | --- | --- | --- | --- | --- | --- | --- | --- | --- | --- | --- |
| NCOC(=O)Cc1ccc(Br)cc1 | > 100 µM (inactive) | > 100 µM (inactive) | > 100 µM (inactive) | > 100 µM (inactive) | > 100 µM (inactive) | > 100 µM (inactive) | > 100 µM (inactive) | > 100 µM (inactive) | > 100 µM (inactive) | > 100 µM (inactive) | > 100 µM (inactive) | > 100 µM (inactive) | > 100 µM (inactive) | > 100 µM (inactive) | > 100 µM (inactive) | – | – | – | – |
| NC(=O)c1csc(C2OC(CO)C(O)C2O)n1 (configuration not stated) | 126 µM (inactive) | 42.4 µM (inactive) | 50.1 µM (inactive) | 885 µM (inactive) | 20.3 µM (inactive) | 2790 µM (inactive) | 44.7 µM (inactive) | 4.26 µM (inactive) | 4.9 µM (inactive) | 237 µM (inactive) | 179 µM (inactive) | 84.9 µM (inactive) | 57 µM (inactive) | 57.5 µM (inactive) | 60.1 µM (inactive) | 48.4 µM (inactive) | 13.7 µM (inactive) | 57.9 µM (inactive) | – |
| Oc1ccc(/C=N/N=c2\[nH][nH]/c(=N\N=C\c3ccc(O)cc3O)c3ccccc23)c(O)c1 | – | 0.327 µM (active) | – | 0.21 µM (active) | 0.294 µM (active) | 0.271 µM (active) | 0.29 µM (active) | 0.261 µM (active) | 0.375 µM (active) | – | 0.338 µM (active) | 0.401 µM (active) | 0.427 µM (active) | 0.126 µM (active) | 0.326 µM (active) | 0.275 µM (active) | – | 0.314 µM (active) | 0.268 µM (active) |
| CCN(CC)CCCNc1n[n+]([O-])c2ccccc2[n+]1[O-] | 13 µM (inactive) | 5.73 µM (inactive) | 8.22 µM (inactive) | 17.3 µM (inactive) | 20.7 µM (inactive) | 14.3 µM (inactive) | – | 6.93 µM (inactive) | 9.73 µM (inactive) | 4.07 µM (inactive) | 18.4 µM (inactive) | 6.01 µM (inactive) | 42.4 µM (inactive) | 26.4 µM (inactive) | 11.6 µM (inactive) | 15 µM (inactive) | 23.7 µM (inactive) | 38.4 µM (inactive) | 31.8 µM (inactive) |
| O=C1CC2(CCNCC2)C(=O)N1N1CCCCC1 | > 100 µM (inactive) | > 100 µM (inactive) | > 100 µM (inactive) | > 100 µM (inactive) | > 100 µM (inactive) | > 100 µM (inactive) | > 100 µM (inactive) | > 100 µM (inactive) | > 100 µM (inactive) | > 100 µM (inactive) | > 100 µM (inactive) | > 100 µM (inactive) | > 100 µM (inactive) | > 100 µM (inactive) | > 100 µM (inactive) | > 100 µM (inactive) | > 100 µM (inactive) | – | > 100 µM (inactive) |
| CC1CC2=C(C1)C(C1(C)C(=O)CC3C(C1=O)C3(C)C)C(C)C2=O (configuration not stated) | > 100 µM (inactive) | > 100 µM (inactive) | > 100 µM (inactive) | > 100 µM (inactive) | > 100 µM (inactive) | > 100 µM (inactive) | > 100 µM (inactive) | > 100 µM (inactive) | > 100 µM (inactive) | > 100 µM (inactive) | > 100 µM (inactive) | > 100 µM (inactive) | – | > 100 µM (inactive) | > 100 µM (inactive) | > 100 µM (inactive) | > 100 µM (inactive) | > 100 µM (inactive) | > 100 µM (inactive) |
| CC1=CC(=O)c2ccc(C)cc2C1=O [CHIMAPHILIN] | – | 15.1 µM (inactive) | 4.09 µM (inactive) | 11.6 µM (inactive) | 15.6 µM (inactive) | 2.91 µM (inactive) | 20.5 µM (inactive) | 3.65 µM (inactive) | 11.6 µM (inactive) | 19 µM (inactive) | 16.8 µM (inactive) | 11.6 µM (inactive) | 10.4 µM (inactive) | 14.3 µM (inactive) | 5.22 µM (inactive) | 5.96 µM (inactive) | 16.7 µM (inactive) | 2.49 µM (inactive) | 5.78 µM (inactive) |
| COc1cc(Nc2cnc3cc(F)c(F)cc3n2)cc(OC)c1OC | 36.8 µM (inactive) | > 100 µM (inactive) | 67.1 µM (inactive) | > 100 µM (inactive) | > 100 µM (inactive) | > 100 µM (inactive) | 63.2 µM (inactive) | – | > 100 µM (inactive) | > 100 µM (inactive) | > 100 µM (inactive) | – | > 100 µM (inactive) | > 100 µM (inactive) | 73.6 µM (inactive) | 69.3 µM (inactive) | > 100 µM (inactive) | > 100 µM (inactive) | > 100 µM (inactive) |
| C/C(=C1/N=C(c2ccccc2)OC1=O)c1ccccc1 | – | 68.2 µM (inactive) | 85.3 µM (inactive) | > 100 µM (inactive) | 48.6 µM (inactive) | > 100 µM (inactive) | 46.3 µM (inactive) | > 100 µM (inactive) | > 100 µM (inactive) | 87.3 µM (inactive) | > 100 µM (inactive) | > 100 µM (inactive) | – | > 100 µM (inactive) | > 100 µM (inactive) | 61.4 µM (inactive) | > 100 µM (inactive) | 87.3 µM (inactive) | > 100 µM (inactive) |
| O=c1oc2ccc(Cl)cc2cc1-c1cn2cc(Cl)ccc2n1 | > 100 µM (inactive) | > 25.8 µM (inactive) | 0.74 µM (active) | 15.1 µM (inactive) | > 100 µM (inactive) | > 100 µM (inactive) | – | 5.05 µM (inactive) | > 100 µM (inactive) | > 100 µM (inactive) | > 100 µM (inactive) | > 70.3 µM (inactive) | 11.4 µM (inactive) | > 80.9 µM (inactive) | > 100 µM (inactive) | 2.54 µM (inactive) | > 100 µM (inactive) | 0.24 µM (active) | > 22.4 µM (inactive) |
| Nc1nc(N)c2ncn(Cc3ccccc3CO)c2n1 | – | > 100 µM (inactive) | > 100 µM (inactive) | > 100 µM (inactive) | > 100 µM (inactive) | > 100 µM (inactive) | > 100 µM (inactive) | > 100 µM (inactive) | > 100 µM (inactive) | > 100 µM (inactive) | > 100 µM (inactive) | > 100 µM (inactive) | > 100 µM (inactive) | > 100 µM (inactive) | > 100 µM (inactive) | > 100 µM (inactive) | > 100 µM (inactive) | > 100 µM (inactive) | > 100 µM (inactive) |
| COP(=O)(Cc1ccccc1)Cc1ccccc1 | 86.1 µM (inactive) | > 100 µM (inactive) | > 100 µM (inactive) | > 100 µM (inactive) | > 100 µM (inactive) | > 100 µM (inactive) | > 100 µM (inactive) | > 100 µM (inactive) | > 100 µM (inactive) | > 100 µM (inactive) | > 100 µM (inactive) | > 100 µM (inactive) | > 100 µM (inactive) | > 100 µM (inactive) | > 100 µM (inactive) | – | > 100 µM (inactive) | – | > 100 µM (inactive) |
